According to PubChem BioAssay (NCI):
Several values for one entry are separate records, joined by “and”; a condition that tells them apart may be missing. Equal values may be shown once.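 1) Cells in 96-well plates. 2) Compound, 48 h, 5 concentrations. 3) Linear interpolation between surrounding doses. 4) Unreached endpoint = highest concentration. GI50 marks 50% less growth. The concentration for full growth arrest is given as TGI.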

Experiments:
Experiment in all cases: NCI tumour cell line growth inhibition, 48 h
KM20L2 colon = system: KM20L2 colon
HOP-18 NSCLC = system: HOP-18 NSCLC
RXF-631 renal = system: RXF-631 renal
M19-MEL melanoma = system: M19-MEL melanoma
DLD-1 colon = system: DLD-1 colon
DMS 273 small cell lung = system: DMS 273 small cell lung
DMS 114 small cell lung = system: DMS 114 small cell lung
XF 498 CNS = system: XF 498 CNS
MDA-N = system: MDA-N
P388/ADR leukemia = system: P388/ADR leukemia

SMILES	TGI (KM20L2 colon) [µM]	TGI (HOP-18 NSCLC)	TGI (RXF-631 renal) [µM]	TGI (M19-MEL melanoma)	TGI (DLD-1 colon)	TGI (DMS 273 small cell lung)	TGI (DMS 114 small cell lung)	TGI (XF 498 CNS)	TGI (MDA-N) [µM]	other results
CCc1cccc(C(C)C)c1C1C(=O)C(=O)N(c2nc3ccccc3s2)C(=O)C1=O	> 100	> 100 µM	> 100	> 100 µM	> 100 µM	> 100 µM	> 100 µM			
Cc1nn(C(=O)CC(=O)Nc2ccccc2Cl)c(C)c1N=Nc1ccccc1Cl	> 100	> 100 µM	> 100	> 100 µM	> 100 µM	> 100 µM	> 100 µM	> 100 µM		
Cn1c(N)c(N=Nc2ccc(S(N)(=O)=O)cc2)c(=O)n(C)c1=O									> 100	
CCCCCC1C2C(=O)NC(=O)C1C(=O)NC2=O (configuration not stated)	> 100			> 100 µM	> 100 µM	> 100 µM	> 100 µM	> 100 µM		
O=C1c2cccc3cc4ccccc4c(c23)C(=O)N1CCCNCCNCCCN1C(=O)c2cccc3cc4ccccc4c(c23)C1=O									1.82	
Nc1n[nH]c(=O)c2c1c(Br)cn2C1OC(CO)C(O)C1O (configuration not stated)	> 100	65.6 µM	6.59	40.2 µM	> 25.3 µM	> 41.2 µM	17.8 µM			
NCCN.O=N[O-].O=N[O-].O=N[O-].O=N[O-].[Co+3].[K+]	> 100			> 100 µM	> 100 µM		> 100 µM			GI50 (KM20L2 colon): > 100 µM; GI50 (M19-MEL melanoma): > 100 µM; GI50 (DLD-1 colon): > 100 µM; GI50 (DMS 114 small cell lung): > 100 µM
C[CH2][Ge]1([CH2]C)[CH2]CC2(CCN(CCCN(C)C)C2)C[CH2]1	11	8.25 µM		2.63 µM		4.57 µM	3.88 µM	1.45 µM	1.02	GI50 (KM20L2 colon): 2.94 µM; GI50 (HOP-18 NSCLC): 3.19 µM; GI50 (P388/ADR leukemia): 1.02 µM; TGI (P388/ADR leukemia): 1.87 µM; GI50 (XF 498 CNS): 1.16 µM; GI50 (M19-MEL melanoma): 1.47 µM; GI50 (DMS 273 small cell lung): 2.4 µM; GI50 (DMS 114 small cell lung): 2.11 µM; GI50 (MDA-N): 0.369 µM
CC(=O)NC1C(=O)CC(c2ccccc2)N(C)C1c1ccccc1 (configuration not stated)	> 100		> 100	> 100 µM	> 100 µM	> 100 µM	> 100 µM			
O=c1c2ccccc2nc(-c2ccccc2Cl)n1NC1OC(CO)C(O)C(O)C1O (configuration not stated)	> 100	> 100 µM		> 100 µM	> 100 µM	> 100 µM	> 100 µM	> 100 µM		
CCCC1C2=C(C(=O)OC2=O)C2C(CC)CC3=C(C(=O)OC3=O)C12 (configuration not stated)									> 100	
Cc1cn2cc(-c3ccncc3)nc2s1	> 100	> 100 µM	> 100	> 100 µM	> 100 µM	> 100 µM	> 100 µM	> 100 µM		
COCC(O)CN1C(N)=NC(O)C1O (configuration not stated)	> 100	> 100 µM		> 100 µM	> 100 µM		> 100 µM			
CC/C(=C(\c1ccccc1)c1ccc(OCC[N+](C)(C)C)cc1)c1ccccc1	31.1	26.2 µM	41	26.2 µM	37.9 µM	19.9 µM	21.7 µM			
C/C(=C1/N=C(c2ccccc2)OC1=O)c1cccs1									> 100	
CC(=O)/C=C\C(=O)NNS(=O)(=O)c1ccc(C)cc1	> 100		> 100	> 100 µM	> 100 µM	> 100 µM		> 100 µM		
COc1cc(/C=C/C(=O)C(C)(C)C)cc(OC)c1OC	> 100	> 100 µM		> 100 µM	> 100 µM	> 100 µM	71.5 µM	> 100 µM		
O=C(Cc1nc2ccccc2s1)C(=O)Nc1ccccc1C(F)(F)F	> 100	> 100 µM		> 100 µM	> 100 µM	> 100 µM	> 100 µM	> 100 µM		
Cn1c(N)cc(=O)nc1N									> 100	

SMILES	TGI (KM20L2 colon) [µM]	TGI (HOP-18 NSCLC)	TGI (RXF-631 renal) [µM]	TGI (M19-MEL melanoma)	TGI (DLD-1 colon)	TGI (DMS 273 small cell lung)	TGI (DMS 114 small cell lung)	TGI (XF 498 CNS)	TGI (MDA-N) [µM]	other results
O=C(CN1C(=O)c2ccccc2C1=O)NC1(C(=O)O)CCCC1									> 100	
O=C1OC2C(O)COC2(OCc2c[nH]c3ccccc23)C1O (configuration not stated) (tested in a mixture with another compound)	> 100	> 100 µM		> 100 µM	> 100 µM	> 100 µM	> 100 µM	> 100 µM		
Cc1nc2c(=O)n(C)c(=O)nc-2n(-c2ccc(Cl)cc2)c1C	> 100	> 100 µM	> 100	> 100 µM	> 100 µM	> 100 µM	> 100 µM	> 100 µM		
O=[N+]([O-])c1ccc(-c2ccc(C3=Nn4c(nnc4-c4ccc(Cl)cc4)SC3)o2)cc1	> 100	> 100 µM	> 100	> 100 µM	> 100 µM	> 100 µM	> 100 µM	60.1 µM		
O=C1c2ccccc2CC1C1(O)C(=O)Nc2c(Cl)cc(Cl)cc21 (configuration not stated)	> 100	> 100 µM	> 100		> 100 µM	> 100 µM	68.8 µM	> 100 µM		
S=C(N/N=C/c1ccccc1)NC1CC(c2ccccc2)Oc2ccccc21 (configuration not stated)				> 100 µM	> 100 µM	> 100 µM	> 100 µM	> 100 µM		
O=S(O)CCCSSCCCCSSCCCS(=O)O	> 100	> 100 µM		> 100 µM	> 100 µM	> 100 µM	> 100 µM	> 100 µM		
CC1CCCC2(O1)OC1CC(=O)OC1C1=C2C(=O)c2ccccc2C1=O (configuration not stated)	16			7.36 µM		3.82 µM	3.35 µM	8.42 µM		
CC(=O)OC12CCCCC1C1(CCCC1)NC2=O (configuration not stated)	> 100	> 100 µM		> 100 µM	> 100 µM		> 100 µM	> 100 µM		
COc1cc(OC)c(-c2oc3ccccc3c(=O)c2O)c(OC)c1									2.93	
CC[N+]1(C)CCC(O)(/C=C/c2ccccc2)C(C(=O)/C=C/c2ccccc2)C1 (configuration not stated)	49.3	31.3 µM		27.3 µM	37.3 µM	47.3 µM	16.9 µM	26.7 µM	23.7	
CC(=O)NC(Cc1ccccc1)C(=S)N1CCCC1 (configuration not stated)	> 100	> 100 µM	> 100	> 100 µM	> 100 µM	> 100 µM	> 100 µM	> 100 µM		
CCN(CC)CC(C(=O)Nc1c(C)cccc1C)/C(C)=N/NC(N)=S (configuration not stated)	> 100		> 100	> 100 µM	> 100 µM	> 100 µM	> 100 µM	> 100 µM		
O=c1[nH]c2cccccc-2c1-c1nc2ccccc2[nH]1	> 100			> 100 µM	> 100 µM	70.6 µM	> 100 µM	42.3 µM		
O=C(NC(c1ccccc1)C(O)C(=O)OCc1ccc2c(c1)C(=O)c1ccccc1C2=O)c1ccccc1 (configuration not stated)	> 100	10.5 µM	> 100	> 100 µM	> 100 µM	> 100 µM	> 100 µM	35.9 µM	> 100	TGI (P388/ADR leukemia): > 100 µM
CC(C)(O)C1CC(=O)C(C)(C2C(O)CC3(C)C4CC=C5C(CCC(O)C5(C)C)C4(C)C(=O)CC23C)O1 (configuration not stated)									> 100	
C/C=C\C(C)=C/C(C)C(=O)CC(O)CC1CC(=O)NC(=O)C1 (configuration not stated)									> 100	
COC(=O)c1c(OC(=O)c2ccccc2)noc1CC(=O)OC1C=CCCC1 (configuration not stated)	> 100	> 100 µM			> 100 µM	> 100 µM	> 100 µM			
COc1cccc2c1C(=N)c1c(O)c3c(c(O)c1C2=O)C[C@@](O)(C(C)=O)C[C@@H]3OC1CC(N)C(O)C(C)O1 (some centres not stated)		3.48 µM and 2.56 µM	3.11	2.15 µM and 2.64 µM	5.7 µM and 14.9 µM	1.65 µM and 1.86 µM	0.73 µM and 1.46 µM	2.26 µM and 2.27 µM	10.4	GI50 (P388/ADR leukemia): 13.6 µM; TGI (P388/ADR leukemia): 51.7 µM; GI50 (MDA-N): 1.15 µM
